Test results: the Deep4Chem optical property database
Blank lines part the entries; values can stand above or below the compound they belong to.

Test: solvent given as SMILES

- fluorescence lifetime (in CC#N): 1 ns
SMILES: C(=C\c1nc(-c2ccccc2)c2ccccn12)/c1nc(-c2ccccc2)c2ccccn12

- fluorescence lifetime (in ClC(Cl)Cl): 2.6 ns
SMILES: CN(C)c1ccc(C2=Cc3c4ccccc4c4ccccc4[n+]3[B-](F)(F)O2)cc1

- fluorescence lifetime (in CC#N): 2.81 ns
SMILES: C=CC(=O)Oc1ccc2cc(C=C)c(=O)oc2c1

SMILES: CC1=[N+]2C(=C(c3ccc(C#N)cc3)c3ccc(C)n3[B-]2(F)F)C=C1
- fluorescence lifetime (in Cc1ccccc1): 0.55 ns

SMILES: CC1=CC(c2ccc3cc(N(C)C)ccc3c2)=[O+][B-](F)(F)O1
- fluorescence lifetime (in C1CCOC1): 3.56 ns
- fluorescence lifetime (in CC#N): 1.02 ns
- fluorescence lifetime (in CC(C)=O): 2.72 ns
- fluorescence lifetime (in CS(C)=O): 1.47 ns
- fluorescence lifetime (in Cc1ccccc1): 4.08 ns
- fluorescence lifetime (in ClC(Cl)Cl): 3.46 ns
- fluorescence lifetime (in ClCCl): 3.69 ns

SMILES: c1ccc(-c2c3c(c(-c4ccccc4)c4cc5ccccc5cc24)Cc2c(c(-c4ccccc4)c4cc5ccccc5cc4c2-c2ccccc2)C3)cc1
- fluorescence lifetime (in CC#N): 6.87 ns
- fluorescence lifetime (in CCCCCC): 3.8 ns
- fluorescence lifetime (in CO): 3.68 ns
- fluorescence lifetime (in Cc1ccccc1): 3.24 ns
- fluorescence lifetime (in ClCCl): 2.58 ns

SMILES: COc1ccc(-c2nc(C)cc(-c3ccc(-n4c5ccccc5c5ccccc54)cc3)n2)cc1
- fluorescence lifetime (in C1CCOC1): 3.76 ns
- fluorescence lifetime (in CN(C)C=O): 6.51 ns
- fluorescence lifetime (in Cc1ccccc1): 1.87 ns
- fluorescence lifetime (in ClC(Cl)Cl): 3.91 ns

- fluorescence lifetime (in C1CCCCC1): 3.01 ns
- fluorescence lifetime (in CCOC(C)=O): 0.938 ns
SMILES: CC1=[N+]2C(=C(c3ccc(Br)cc3)c3ccc(C)n3[B-]2(F)F)C=C1c1cc2n(c1)[B-](F)(F)[N+]1=CC=CC1=C2c1c(C)cc(C)cc1C

SMILES: CCC1=C(C)C2=C(C)c3c(C)c(CC)c(C)n3[B-](F)(F)[N+]2=C1C
- fluorescence lifetime (in C1CCCCC1): 5.6 ns
- fluorescence lifetime (in C1CCOC1): 5.63 ns
- fluorescence lifetime (in C1COCCO1): 5.48 ns
- fluorescence lifetime (in CC#N): 5.96 ns
- fluorescence lifetime (in CC(C)=O): 5.92 ns
- fluorescence lifetime (in CC(C)O): 6.04 ns
- fluorescence lifetime (in CCC(C)C): 6.28 ns
- fluorescence lifetime (in CCCCCC): 5.9 ns
- fluorescence lifetime (in CCCCCCCC): 5.84 ns
- fluorescence lifetime (in CCCCCCCCCCO): 5.71 ns
- fluorescence lifetime (in CCCCCCCCO): 5.9 ns
- fluorescence lifetime (in CCCCCCO): 5.78 ns
- fluorescence lifetime (in CCCCO): 5.98 ns
- fluorescence lifetime (in CCCO): 6.01 ns
- fluorescence lifetime (in CCO): 6.09 ns
- fluorescence lifetime (in CCOC(C)=O): 5.78 ns
- fluorescence lifetime (in CCOCC): 6.21 ns
- fluorescence lifetime (in CN1CCCC1=O): 5.56 ns
- fluorescence lifetime (in CN(C)C=O): 5.57 ns
- fluorescence lifetime (in CO): 6.1 ns
- fluorescence lifetime (in Cc1ccccc1): 5.07 ns
- fluorescence lifetime (in OCC(F)(F)F): 6.94 ns
- fluorescence lifetime (in OCCO): 5.8 ns
- fluorescence lifetime (in OCCOc1ccccc1): 5.46 ns
- fluorescence lifetime (in c1ccccc1): 5 ns

- fluorescence lifetime (in CC1CCCCC1): 3.2 ns
- fluorescence lifetime (in CC#N): 3 ns
SMILES: C(=C\c1c2ccccc2cc2ccccc12)/c1cnc2ccccc2c1

- fluorescence lifetime (in ClCCl): 5.2 ns
SMILES: F[B-]1(F)n2c(c3ccccc3c2-c2ccccc2)C(c2ccccc2)=C2c3ccccc3C(c3ccccc3)=[N+]21

- fluorescence lifetime (in CC#N): 0.35 ns
SMILES: O=c1[nH]c(=O)c2nc3ccccc3nc2[nH]1

- fluorescence lifetime (in ClCCl): 2.48 ns
SMILES: CCN(CC)c1ccc2c(c1)oc(=O)c1cnc3c(cnn3-c3ccccc3)c12

SMILES: CCCCCCCC(=O)Oc1ccc2c3cccc4c(OC(=O)CCCCCCC)ccc(c5cccc1c52)c43
- fluorescence lifetime (in C1CCOC1): 4.35 ns
- fluorescence lifetime (in Cc1ccccc1): 3.72 ns
- fluorescence lifetime (in ClC(Cl)(Cl)Cl): 3.89 ns
- fluorescence lifetime (in ClC(Cl)Cl): 4.16 ns
- fluorescence lifetime (in ClCCl): 4.34 ns
- fluorescence lifetime (in c1ccncc1): 3.88 ns

- fluorescence lifetime (in ClCCl): 1.51 ns
SMILES: COc1ccc(-c2cc3c(s2)c(C(C)=O)cc(=O)n3C)cc1

- fluorescence lifetime (in CCCCCC): 6.61 ns
- fluorescence lifetime (in CO): 6.76 ns
- fluorescence lifetime (in ClCCl): 6.23 ns
SMILES: CC1=C2C=CC(C)=[N+]2[B-](F)(F)n2cccc21

SMILES: COc1ccc(C2=C3C(C)=CC(C)=[N+]3[B-](F)(F)n3c(/C=C/c4ccc(N(C)C)cc4)cc(C)c32)cc1
- fluorescence lifetime (in C1CCCCC1): 3.5 ns
- fluorescence lifetime (in C1CCOC1): 3 ns
- fluorescence lifetime (in C1COCCO1): 3.43 ns
- fluorescence lifetime (in CC#N): 1.2 ns
- fluorescence lifetime (in CC(C)=O): 2.23 ns
- fluorescence lifetime (in CCC#N): 1.84 ns
- fluorescence lifetime (in CCCC#N): 2.26 ns
- fluorescence lifetime (in CCCCO): 2.45 ns
- fluorescence lifetime (in CCOC(C)=O): 3.31 ns
- fluorescence lifetime (in CCOCC): 3.74 ns
- fluorescence lifetime (in CO): 0.85 ns
- fluorescence lifetime (in Cc1ccccc1): 3.25 ns
- fluorescence lifetime (in ClC(Cl)Cl): 3.47 ns
